# Test results as given in PubChem BioAssay AID2060344 (Molecular Pharmacology Branch, DTP, NCI, 2025).
# Where “and” joins values, the source holds several entries; their conditions need not be identical. Equal values may be shown once.
# System: SK-MEL-2 multi-cell spheroids, viability
# Assay: Anticancer human tumor SK-MEL-2 cell line growth inhibition [TAK];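 further: spheroids exposed to drugs for seven days before readout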;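 on viability, T/C: percent of DMSO vehicle control luminescence so 100% = untreated viability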
# Conditions: for viability, T/C: stronger effect = lower value
# Method in brief: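 Drug combinations, each paired with TAK-243 or ipatasertib, were tested on multi-cell spheroids of 60% malignant cells, 25% HUVEC and 15% hMSC. Top concentrations were at or near the clinical Cmax (10 microM if undetermined), decreasing by half-log; viability is given as % test/control.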
# [1] = curve of first compound, second compound 0.3 µM
# [2] = curve of first compound, second compound 0.949 µM
# [3] = curve of first compound, second compound 3 µM
# [4] = curve of first compound, second compound 9.49 µM
# [5] = curve of first compound, second compound 30 µM
# [6] = second compound 0.3 µM, first compound 0.316 µM
# [7] = second compound 0.3 µM, first compound 1 µM
# [8] = second compound 0.949 µM, first compound 0.316 µM
# [9] = second compound 0.949 µM, first compound 1 µM
# [10] = second compound 3 µM, first compound 0.316 µM
# [11] = second compound 3 µM, first compound 1 µM
# [12] = second compound 9.49 µM, first compound 0.316 µM
# [13] = second compound 9.49 µM, first compound 1 µM
# [14] = second compound 30 µM, first compound 0.316 µM
# [15] = second compound 30 µM, first compound 1 µM
# [16] = second compound 0.3 µM, first compound 0.00316 µM
# [17] = second compound 0.3 µM, first compound 0.01 µM
# [18] = second compound 0.3 µM, first compound 0.0316 µM
# [19] = second compound 0.3 µM, first compound 0.1 µM
# [20] = second compound 0.949 µM, first compound 0.00316 µM
# [21] = second compound 0.949 µM, first compound 0.01 µM
# [22] = second compound 0.949 µM, first compound 0.0316 µM
# [23] = second compound 0.949 µM, first compound 0.1 µM
# [24] = second compound 3 µM, first compound 0.00316 µM
# [25] = second compound 3 µM, first compound 0.01 µM
# [26] = second compound 3 µM, first compound 0.0316 µM
# [27] = second compound 3 µM, first compound 0.1 µM
# [28] = second compound 9.49 µM, first compound 0.00316 µM
# [29] = second compound 9.49 µM, first compound 0.01 µM
# [30] = second compound 9.49 µM, first compound 0.0316 µM
# [31] = second compound 9.49 µM, first compound 0.1 µM
# [32] = second compound 30 µM, first compound 0.00316 µM
# [33] = second compound 30 µM, first compound 0.01 µM
# [34] = second compound 30 µM, first compound 0.0316 µM
# [35] = second compound 30 µM, first compound 0.1 µM
smiles,measurement,setting,value
CCCS(=O)(=O)Nc1ccc(F)c(C(=O)c2c[nH]c3ncc(-c4ccc(Cl)cc4)cc23)c1F + CC(C)NCC(C(=O)N1CCN(c2ncnc3c2C(C)CC3O)CC1)c1ccc(Cl)cc1,IC50,[1],25900 nM
same,IC50,[2],24000 nM
same,IC50,[3],13100 nM
same,IC50,[4],64500 nM
same,IC50,[5],18800 nM
same,"viability, T/C",[6],127%
same,"viability, T/C",[7],108%
same,"viability, T/C","second compound 0.3 µM, first compound 3.16 µM",105%
same,"viability, T/C","second compound 0.3 µM, first compound 10 µM",118%
same,"viability, T/C","second compound 0.3 µM, first compound 31.6 µM",15.1%
same,"viability, T/C","second compound 0.3 µM, first compound 100 µM",57.5%
same,"viability, T/C",[8],121%
same,"viability, T/C",[9],110%
same,"viability, T/C","second compound 0.949 µM, first compound 3.16 µM",107%
same,"viability, T/C","second compound 0.949 µM, first compound 10 µM",80.3%
same,"viability, T/C","second compound 0.949 µM, first compound 31.6 µM",31.6%
same,"viability, T/C","second compound 0.949 µM, first compound 100 µM",49.3%
same,"viability, T/C",[10],115%
same,"viability, T/C",[11],110%
same,"viability, T/C","second compound 3 µM, first compound 3.16 µM",105%
same,"viability, T/C","second compound 3 µM, first compound 10 µM",61.1%
same,"viability, T/C","second compound 3 µM, first compound 31.6 µM",14.3%
same,"viability, T/C","second compound 3 µM, first compound 100 µM",10.9%
same,"viability, T/C",[12],112%
same,"viability, T/C",[13],120%
same,"viability, T/C","second compound 9.49 µM, first compound 3.16 µM",107%
same,"viability, T/C","second compound 9.49 µM, first compound 10 µM",114%
same,"viability, T/C","second compound 9.49 µM, first compound 31.6 µM",120%
same,"viability, T/C","second compound 9.49 µM, first compound 100 µM",10.4%
same,"viability, T/C",[14],121%
same,"viability, T/C",[15],124%
same,"viability, T/C","second compound 30 µM, first compound 3.16 µM",64.3%
same,"viability, T/C","second compound 30 µM, first compound 10 µM",119%
same,"viability, T/C","second compound 30 µM, first compound 31.6 µM",2.99%
same,"viability, T/C","second compound 30 µM, first compound 100 µM",2.24%
CC(C)NCC(C(=O)N1CCN(c2ncnc3c2C(C)CC3O)CC1)c1ccc(Cl)cc1 (centres undefined),IC50,"compound alone, run of 02/20/2020",> 30000 nM
CC(C)CC(NC(=O)CNC(=O)c1cc(Cl)ccc1Cl)B1OC(=O)CC(CC(=O)O)(C(=O)O)O1 (centres undefined) + CC(C)NCC(C(=O)N1CCN(c2ncnc3c2C(C)CC3O)CC1)c1ccc(Cl)cc1,IC50,[1],17.1 nM
same,IC50,[2],12.8 nM
same,IC50,[3],5.07 nM
same,IC50,[4],2.04 nM
same,IC50,[5],< 0.316 nM
same,"viability, T/C","second compound 0.3 µM, first compound 0.000316 µM",94.8%
same,"viability, T/C","second compound 0.3 µM, first compound 0.001 µM",94.7%
same,"viability, T/C",[16],85%
same,"viability, T/C",[17],64.9%
same,"viability, T/C",[18],32.8%
same,"viability, T/C",[19],5.51%
same,"viability, T/C","second compound 0.949 µM, first compound 0.000316 µM",81.3%
same,"viability, T/C","second compound 0.949 µM, first compound 0.001 µM",76.5%
same,"viability, T/C",[20],70.3%
same,"viability, T/C",[21],59.5%
same,"viability, T/C",[22],20.2%
same,"viability, T/C",[23],6.05%
same,"viability, T/C","second compound 3 µM, first compound 0.000316 µM",70%
same,"viability, T/C","second compound 3 µM, first compound 0.001 µM",67%
same,"viability, T/C",[24],53.8%
same,"viability, T/C",[25],43.3%
same,"viability, T/C",[26],20.2%
same,"viability, T/C",[27],5.6%
same,"viability, T/C","second compound 9.49 µM, first compound 0.000316 µM",52.6%
same,"viability, T/C","second compound 9.49 µM, first compound 0.001 µM",55.7%
same,"viability, T/C",[28],44.2%
same,"viability, T/C",[29],40.3%
same,"viability, T/C",[30],17.9%
same,"viability, T/C",[31],5.27%
same,"viability, T/C","second compound 30 µM, first compound 0.000316 µM",47.8%
same,"viability, T/C","second compound 30 µM, first compound 0.001 µM",47.5%
same,"viability, T/C",[32],41.7%
same,"viability, T/C",[33],33.5%
same,"viability, T/C",[34],14.4%
same,"viability, T/C",[35],4.44%
CCCS(=O)(=O)Nc1ccc(F)c(C(=O)c2c[nH]c3ncc(-c4ccc(Cl)cc4)cc23)c1F,"viability, T/C",compound 0.316 µM,105% and 130%
same,"viability, T/C",compound 1 µM,102% and 129%
same,"viability, T/C",compound 3.16 µM,103% and 113%
same,"viability, T/C",compound 10 µM,83% and 41.8%
same,"viability, T/C",compound 31.6 µM,117% and 58.2%
same,"viability, T/C",compound 100 µM,106% and 71.2%
same,IC50,curve of compound,> 100000 nM
COC1CC2CCC(C)C(O)(O2)C(=O)C(=O)N2CCCCC2C(=O)OC(C(C)CC2CCC(OCCO)C(OC)C2)CC(=O)C(C)C=C(C)C(O)C(OC)C(=O)C(C)CC(C)C=CC=CC=C1C (centres undefined),"viability, T/C",compound 0.000316 µM,85% and 118%
same,"viability, T/C",compound 0.001 µM,66.2% and 89%
same,"viability, T/C",compound 0.00316 µM,57.4% and 74.4%
same,"viability, T/C",compound 0.01 µM,55.8% and 73.2%
same,"viability, T/C",compound 0.0316 µM,52.8% and 58.8%
same,"viability, T/C",compound 0.1 µM,47.7% and 69.9%
same,IC50,curve of compound,> 100 nM
COc1c(OCCCN2CCOCC2)ccc2c3n(c(=NC(=O)c4cnc(N)nc4)nc12)CCN3 + CC(C)NCC(C(=O)N1CCN(c2ncnc3c2C(C)CC3O)CC1)c1ccc(Cl)cc1,IC50,[1],51.3 nM
same,IC50,[2],29.4 nM
same,IC50,[3],20.8 nM
same,IC50,[4],14.5 nM
same,IC50,[5],9.89 nM
same,"viability, T/C",[16],92%
same,"viability, T/C",[17],72.5%
same,"viability, T/C",[18],50.6%
same,"viability, T/C",[19],45.6%
same,"viability, T/C",[6],30.9%
same,"viability, T/C",[7],19.5%
same,"viability, T/C",[20],81%
same,"viability, T/C",[21],65%
same,"viability, T/C",[22],47.1%
same,"viability, T/C",[23],38.4%
same,"viability, T/C",[8],27.6%
same,"viability, T/C",[9],21%
same,"viability, T/C",[24],68.5%
same,"viability, T/C",[25],62.9%
same,"viability, T/C",[26],40.2%
same,"viability, T/C",[27],34.2%
same,"viability, T/C",[10],26.1%
same,"viability, T/C",[11],19.5%
same,"viability, T/C",[28],59.8%
same,"viability, T/C",[29],57.6%
same,"viability, T/C",[30],37%
same,"viability, T/C",[31],31.4%
same,"viability, T/C",[12],24.6%
same,"viability, T/C",[13],21.1%
same,"viability, T/C",[32],52.5%
same,"viability, T/C",[33],50.8%
same,"viability, T/C",[34],41.6%
same,"viability, T/C",[35],28.8%
same,"viability, T/C",[14],21.1%
same,"viability, T/C",[15],16.3%
Cc1nc(NC(=O)N2CCCC2C(N)=O)sc1-c1ccnc(C(C)(C)C(F)(F)F)c1 (centres undefined),"viability, T/C",compound 0.0316 µM,100% and 105%
same,"viability, T/C",compound 0.1 µM,91.2% and 91.5%
same,"viability, T/C",compound 0.316 µM,84.4% and 85.5%
same,"viability, T/C",compound 1 µM,80.7% and 83.9%
same,"viability, T/C",compound 3.16 µM,68.8% and 66.5%
same,"viability, T/C",compound 10 µM,55.6% and 54.2%
same,IC50,curve of compound,> 10000 nM
CC(C)CC(NC(=O)CNC(=O)c1cc(Cl)ccc1Cl)B1OC(=O)CC(CC(=O)O)(C(=O)O)O1 (centres undefined),"viability, T/C",compound 0.000316 µM,110% and 95.1%
same,"viability, T/C",compound 0.001 µM,94.6% and 97.2%
same,"viability, T/C",compound 0.00316 µM,98% and 93.9%
same,"viability, T/C",compound 0.01 µM,79.3% and 75.7%
same,"viability, T/C",compound 0.0316 µM,24.6% and 26%
same,"viability, T/C",compound 0.1 µM,6.45% and 4.25%
same,IC50,curve of compound,18.5 nM and 18.1 nM
